Assay results published in publication PMC10226132, “First-in-Class Selective Inhibitors of the Lysine Acetyltransferase KAT8” (Journal of Medicinal Chemistry, 2023).

What was measured:
[1] = target: T1, KAT8 (Homo sapiens, UniProt Q9H7Z6); test: Preincubation and jump-dilution analysis of KAT8 mode of inhibition; type: biochemical; details: for time-dependent inhibition of KAT8 (preincubation assay): 12.5 μM inhibitor, preincubation 5-120 min; for KAT8 activity regained after inhibitor dilution (jump-dilution): 10× IC50 (121 μM for 19, 81 μM for 34), 100-fold dilution, any timepoint 10-240 min
T1 construct: using the previously purified KAT8 (173–458, 5 nM); 6xHis tag with TEV protease cleavage site (N, cleaved yes); made in house; host or cells: E. coli BL21(DE3)
T1 sequence (Q9H7Z6 173-458): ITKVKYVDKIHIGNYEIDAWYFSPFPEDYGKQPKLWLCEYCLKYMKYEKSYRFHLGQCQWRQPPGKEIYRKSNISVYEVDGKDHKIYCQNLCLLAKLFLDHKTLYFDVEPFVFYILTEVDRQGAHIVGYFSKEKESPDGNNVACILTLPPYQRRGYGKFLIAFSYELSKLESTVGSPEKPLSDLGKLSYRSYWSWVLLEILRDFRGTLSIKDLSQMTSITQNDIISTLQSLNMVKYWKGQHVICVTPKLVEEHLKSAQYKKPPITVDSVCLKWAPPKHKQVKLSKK
Description: The preincubation assay was performed by incubating KAT8 with the relevant inhibitor (12.5 μM final concentration) for 5, 10, 20, 30, 60, and 120 min at rt. The activity of KAT8 was then measured as described in the “Radioactive KAT8 inhibition assay” paragraph of the Experimental Section. […] Fifty microliters were then incubated at rt for 10, 20, 30, 60, 120, and 240 min, and the mixtures were then processed as described in the “Radioactive KAT8 inhibition assay” paragraph of the Experimental section. Radioactive signal was normalized to the DMSO control reaction incubated for 240 min, converted in percent of KAT8 activity after 240 min, and plotted against each measurement time point. Experiments were performed in biological triplicates.

[2] = target: T2, KAT8 (Homo sapiens, UniProt Q9H7Z6); test: CETSA target engagement in HT29 cells; type: cell-based; details: 100 μM, 4 h, 59 °C
T2 construct: endogenous in cells; host or cells: HT29
Description: Target engagement in cells was determined by CETSA.[65],[66] For CETSA experiments with cells treated in culture, ∼1 × 10^6 HT29 were treated with DMSO (0.5% v/v final) or 100 μM compound for 4 h at 37 °C and 5% CO2 in a humidified incubator. The cells were harvested, washed twice with PBS, and resuspended in PBS with protease inhibitors. The cell suspensions were then distributed into PCR tubes, heated at the indicated temperature in a SimpliAmp Thermal Cycler (Applied Biosystems) for 3 min, and then cooled for another 3 min at rt. The cell suspensions were then lysed by freeze-thawing three times with 3 min incubations in an ethanol/dry ice bath and water bath at 37 °C. The lysates were then centrifuged at 20,000×g for 30 min at 4 °C to remove cellular debris and protein aggregates, and lysates were prepared for WB analysis. Proteins were separated by SDS-PAGE on 13.5% gels and were transferred to nitrocellulose membranes (Biorad Laboratories). Membranes were blocked for 1 h and incubated overnight with the appropriate primary antibody at 4 °C. After incubation, membranes were washed and incubated with the appropriate secondary antibody (Biorad Laboratories) for 1 h at room temperature. […] The band signals were quantified using ImageJ and values normalized to the 37 °C DMSO control.
T2 sequence (Q9H7Z6 whole entry): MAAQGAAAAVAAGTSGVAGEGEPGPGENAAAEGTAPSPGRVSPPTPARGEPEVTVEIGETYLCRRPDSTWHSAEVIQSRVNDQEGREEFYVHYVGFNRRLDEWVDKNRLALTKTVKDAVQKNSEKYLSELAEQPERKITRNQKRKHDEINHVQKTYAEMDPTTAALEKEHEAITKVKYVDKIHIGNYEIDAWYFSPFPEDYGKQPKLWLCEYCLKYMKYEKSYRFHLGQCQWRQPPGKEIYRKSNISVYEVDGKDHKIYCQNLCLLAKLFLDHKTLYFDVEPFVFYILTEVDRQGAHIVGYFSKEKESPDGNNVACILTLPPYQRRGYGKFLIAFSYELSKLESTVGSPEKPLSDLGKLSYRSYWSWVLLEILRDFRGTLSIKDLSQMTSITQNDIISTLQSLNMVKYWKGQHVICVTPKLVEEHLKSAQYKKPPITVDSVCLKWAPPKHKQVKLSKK

[3] = system: HT29 cells; test: MTT cell proliferation assay, HT29; type: cell-based, human; details: for antiproliferative activity in HT29: 10, 25, 50, 100 μM; for IC50: Homo sapiens, HT-29, 72 h treatment, MTT
Description: (§1) Human commercially available AML U937, breast cancer MCF7, lung adenocarcinoma NCI-H460, H1299 and A-549, glioblastoma U251, B lymphocyte AHH1 cell lines were maintained in compete 10% foetal bovine serum (FBS,) RPMI 1640 (Euroclone, Milan, IT) medium. Human commercially available colon cancer HCT116 and HT29 lines and cervix adenocarcinoma HeLa cells were maintained in compete 10% FBS Dulbecco’s Modified Eagle Medium (DMEM) high glucose medium (Euroclone). L-Glutamine, FBS, and penicillin streptomycin mixture added to medium were obtained from Euroclone. All cell lines were cultured at 37 °C in a humidified atmosphere of 5% CO2:95% air and were tested for mycoplasma contamination routinely by RT-PCR.
(§2) For analysis of cell proliferation, cells were plated in sextuplicate on 96-well plates in complete media. After 24 h, cells were exposed to different drugs for 72 h. The inhibitory effect of different drugs was assessed by MTT (Sigma, St. Louis, MO, USA) colorimetric assays as previously reported.[67] Aqueous DMSO (0.5% v/v) was used as a control (untreated). The results are reported as “viability of drug-treated cells/viability of untreated cells” × 100 and represent the average ±SD of three independent experiments. IC50 values were using fitted by nonlinear regression using GraphPad Prism 8.0.

[4] = system: U251 cells; test: MTT cell proliferation assay, U251; type: cell-based, human; details: 10, 25, 50, 100 μM, 72 h
Description: as §1, §2

[5] = system: HCT116 cells; test: Cell cycle analysis by propidium iodide staining, HCT116; type: cell-based, human; details: 72 h
Description: For the analysis of the progression of cells through cell cycle phases and sub-G1 peak identification, 24 h after plating, cells were treated with the different compounds. After 72 h, both floating and adherent cells were collected and fixed with cold 70% ethanol. At least 24 h after fixation, cells were incubated with 0.025 mg/mL Propidium Iodide for 15 min at room temperature and analyzed. For Annexin V analysis, 24 h after plating, cells were treated with 50 and 100 μM of the compounds. In the case of chloroquine experiments, 10 μM chloroquine (Sigma-Aldrich, A9165) was added 30 min before compounds. 72 h after treatment, both floating and adherent cells were collected and stained with an Annexin V-FITC apoptosis detection kit (ENZO #ALX-850-020-KI). Samples were incubated 15 min in the dark at rt, and 10,000 events were then analyzed.

[6] = system: H1299-EGFP-LC3 cells; test: Fluorescence microscopy of autophagosomes in EGFP-LC3 H1299 cells; type: cell-based, human; details: increasing doses, 48 h
Description: The stable EGFP-LC3 H1299 cell line was used to detect autophagic structures by fluorescence spinning disk microscopy. Cells were grown on glass coverslips, treated with compounds for 48 h and fixed in 3.7% formaldehyde (Sigma, F1635) DNA was counterstained with 0.05 μg/mL DAPI (4,6-diamidino-2-phenylindole; Sigma-Aldrich, D9542). At least 500 cells were counted for each experimental point, and cells showing ≥15 dots were considered positive. Dots were counted using a pipeline created in a previous work on the CellProfiler software.[68] Data are presented as median with interquartile range. Samples were observed under a Nikon Eclipse Ti2 microscope with a 60× (1.4 NA) objective, equipped with a CrestOptics X-Light V3 confocal spinning disk and a back illuminated Kinetix sCMOS camera.

KAT8 activity regained after inhibitor dilution (jump-dilution) [1] [%] | IC50 [3] [µM] | SMILES | time-dependent inhibition of KAT8 (preincubation assay) [1] | target engagement (stabilization of KAT8 against thermal-induced aggregation) [2] | antiproliferative activity in HT29 ([3]; 72 h) | antiproliferative activity in U251 [4] | change in the different stages of cell cycle, HCT116 [5] | EGFP-LC3 dots per cell [6] | decrease of cell viability, HT29 ([3]; 100 μM, 72 h) [%]
~90 | > 100 | CC1=NN(c2ccc(C(=O)O)cc2)C(=O)/C1=C\c1ccc[nH]1 [Compound 19, (Z)-4-(4-((1H-Pyrrol-2-yl)methylene)-3-methyl-5-oxo-4,5-dihydro-1H-pyrazol-1-yl)benzoic Acid] | did not observe time-dependent inhibition | stabilize KAT8 against thermal-induced aggregation | a certain degree of antiproliferative activity | neither inhibitor had any effect | no significative change | significantly increased | –
~90 | 54 ± 10.9 | O=C(O)c1ccc(N2N=C(c3ccccc3)/C(=C/c3ccc[nH]3)C2=O)cc1 [Compound 34, (Z)-4-(4-((1H-Pyrrol-2-yl)methylene)-5-oxo-3-phenyl-4,5-dihydro-1H-pyrazol-1-yl)benzoic Acid] | did not observe time-dependent inhibition | stabilize KAT8 against thermal-induced aggregation | a certain degree of antiproliferative activity | neither inhibitor had any effect | no significative change | significantly increased | 70
